Assay results from patent publication US10239873B2, “7-azaindole or 4,7-diazaindole derivatives as IKKϵ epsilon and TBK1 inhibitor and pharmaceutical composition comprising same” (GREEN CROSS CORPORATION, priority 2015, dated 2019).

What was measured:
[1] = biological target: T1, TBK1 (Homo sapiens, UniProt Q9UHD2); test: ADP-Glo Kinase Assay, inhibition activity on TBK1; format: biochemical
T1 construct: purchased Promega (Invitrogen is also named in the same bracket) V4158; PR8031B; V3991 (not assigned to the two kinases)
T1 sequence (Q9UHD2 1-729): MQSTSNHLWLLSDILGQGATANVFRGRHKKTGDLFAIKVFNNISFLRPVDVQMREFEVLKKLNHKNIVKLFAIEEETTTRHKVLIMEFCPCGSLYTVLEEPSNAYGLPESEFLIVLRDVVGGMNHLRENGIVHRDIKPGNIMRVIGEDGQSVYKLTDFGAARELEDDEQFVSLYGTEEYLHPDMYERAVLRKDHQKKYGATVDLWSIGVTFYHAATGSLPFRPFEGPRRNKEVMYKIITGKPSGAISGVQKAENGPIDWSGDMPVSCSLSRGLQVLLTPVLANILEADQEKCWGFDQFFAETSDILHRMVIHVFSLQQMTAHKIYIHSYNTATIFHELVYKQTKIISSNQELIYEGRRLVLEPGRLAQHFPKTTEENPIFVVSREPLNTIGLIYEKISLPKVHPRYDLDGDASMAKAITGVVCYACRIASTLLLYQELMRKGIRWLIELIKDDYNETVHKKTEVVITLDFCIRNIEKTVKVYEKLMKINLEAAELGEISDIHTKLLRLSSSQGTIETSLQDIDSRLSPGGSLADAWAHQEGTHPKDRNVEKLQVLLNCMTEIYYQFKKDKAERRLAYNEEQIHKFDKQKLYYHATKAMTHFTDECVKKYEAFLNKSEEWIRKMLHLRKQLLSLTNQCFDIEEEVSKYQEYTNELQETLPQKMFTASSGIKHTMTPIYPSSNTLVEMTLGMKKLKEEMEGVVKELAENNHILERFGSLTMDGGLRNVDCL
In short: (§1)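 In 40 mM Tris pH 7.5 with 20 mM MgCl2 and 0.1 mg/mL BSA, each enzyme (IKKε or TBK1 kinase system) was run according to the manufacturer's protocol. ADP formed was detected by ADP-Glo luminescence.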

[2] = biological target: T2, IKKε (Homo sapiens, UniProt Q14164); test: ADP-Glo Kinase Assay, inhibition activity on IKKε; format: biochemical
T2 construct: purchased Promega and/or Invitrogen V4158; PR8031B; V3991 (not assigned to the two kinases)
T2 sequence (Q14164 1-716): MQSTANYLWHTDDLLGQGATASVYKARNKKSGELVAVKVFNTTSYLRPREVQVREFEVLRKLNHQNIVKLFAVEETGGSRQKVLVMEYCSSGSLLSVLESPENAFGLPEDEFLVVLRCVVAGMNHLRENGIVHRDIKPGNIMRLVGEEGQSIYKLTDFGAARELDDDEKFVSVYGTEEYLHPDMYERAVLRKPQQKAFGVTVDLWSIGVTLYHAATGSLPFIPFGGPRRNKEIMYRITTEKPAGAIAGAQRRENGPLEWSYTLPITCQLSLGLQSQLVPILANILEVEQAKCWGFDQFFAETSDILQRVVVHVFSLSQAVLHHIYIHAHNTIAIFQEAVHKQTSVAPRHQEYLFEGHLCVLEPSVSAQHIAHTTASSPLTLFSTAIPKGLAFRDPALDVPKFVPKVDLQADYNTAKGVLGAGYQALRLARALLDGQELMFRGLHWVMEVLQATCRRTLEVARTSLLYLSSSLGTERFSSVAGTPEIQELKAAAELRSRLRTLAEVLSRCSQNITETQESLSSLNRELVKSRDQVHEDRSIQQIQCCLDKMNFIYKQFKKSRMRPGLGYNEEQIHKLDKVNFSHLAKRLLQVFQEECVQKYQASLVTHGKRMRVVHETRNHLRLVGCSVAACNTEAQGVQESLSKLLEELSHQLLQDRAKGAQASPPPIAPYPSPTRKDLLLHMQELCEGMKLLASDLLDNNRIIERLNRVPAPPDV
In short: as §1

| IC50 [1] | IC50 [2] | Structure (SMILES) |
| --- | --- | --- |
| 28 nM | 38 nM | O=C(NC1CCCC1)N1CC=C(c2c[nH]c3ncc(-c4ccc(CN5CCOCC5)s4)cc23)CC1 [Example 72, N-cyclopentyl-4-(5-(5-(morpholinomethyl)thiophen-2-yl)-1H-pyrrolo[2,3-b]pyridin-3-yl)-5,6-dihydropyridine-1(2H)-carboxamide] |
| 15 nM | 55 nM | CN1CCN(Cc2ccc(-c3cnc4[nH]cc(C5=CCN(C(=O)NC6COC6)CC5)c4c3)cc2)CC1 [Example 78, 4-(5-(4-((4-Methylpiperazin-1-yl)methyl)phenyl)-1H-pyrrolo[2,3-b]pyridin-3-yl)-N-(oxetan-3-yl)-5,6-dihydropyridine-1(2H)-carboxamide] |
| 320 nM | 28 nM | CN1CCN(Cc2ccc(-c3cnc4[nH]cc(C5=CCN(C(=O)NC6COC6)CC5)c4c3)s2)CC1 [Example 79, 4-(5-(5-((4-Methylpiperazin-1-yl)methyl)thiophen-2-yl)-1H-pyrrolo[2,3-b]pyridin-3-yl)-N-(oxetan-3-yl)-5,6-dihydropyridine-1(2H)-carboxamide] |
| 1.2 nM | 3.4 nM | O=C(NC1COC1)N1CC=C(c2c[nH]c3ncc(-c4ccc(CN5CCOCC5)s4)cc23)CC1 [Example 80, 4-(5-(5-(Morpholinomethyl)thiophen-2-yl)-1H-pyrrolo[2,3-b]pyridin-3-yl)-N-(oxetan-3-yl)-5,6-dihydropyridine-1(2H)-carboxamide] |
| 2.8 nM | 3.5 nM | CC(C)NC(=O)N1CCC(c2c[nH]c3ncc(-c4ccc(CN5CCN(C)CC5)cc4)cc23)=CC1C (stereo not shown) [Example 86, N-isopropyl-2-methyl-4-(5-(4-((4-methylpiperazin-1-yl)methyl)phenyl)-1H-pyrrolo[2,3-b]pyridin-3-yl)-5,6-dihydropyridine-1(2H)-carboxamide] |
| 1 nM | 1.5 nM | CC(C)NC(=O)N1CCC(c2c[nH]c3ncc(-c4ccc(CN5CCOCC5)s4)cc23)=CC1C (stereo not shown) [Example 87, N-isopropyl-2-methyl-4-(5-(5-(morpholinomethyl)thiophen-2-yl)-1H-pyrrolo[2,3-b]pyridin-3-yl)-5,6-dihydropyridine-1(2H)-carboxamide] |
| 0.8 nM | 3.2 nM | CC(C)NC(=O)N1CCC(c2c[nH]c3ncc(-c4ccc(CN5CCN(C)CC5)s4)cc23)=CC1C (stereo not shown) [Example 88, N-isopropyl-2-methyl-4-(5-(5-((4-methylpiperazin-1-yl)methyl)thiophen-2-yl)-1H-pyrrolo[2,3-b]pyridin-3-yl)-5,6-dihydropyridine-1(2H)-carboxamide] |
| 2.8 nM | 3.3 nM | CC(C)NC(=O)N1CCC(c2c[nH]c3ncc(-c4ccc(C(=O)N5CCN(C)CC5)cc4)cc23)=CC1C (stereo not shown) [Example 89, N-isopropyl-2-methyl-4-(5-(4-(4-methylpiperazine-1-carbonyl)phenyl)-1H-pyrrolo[2,3-b]pyridin-3-yl)-5,6-dihydropyridine-1(2H)-carboxamide] |
| 5.2 nM | 5.5 nM | CC(C)NC(=O)N1CCC(c2c[nH]c3ncc(-c4ccc(CN5CCOCC5)cc4)cc23)=CC1C (stereo not shown) [Example 90, N-isopropyl-2-methyl-4-(5-(4-(morpholinomethyl)phenyl)-1H-pyrrolo[2,3-b]pyridin-3-yl)-5,6-dihydropyridine-1(2H)-carboxamide] |
| 46 nM | 180 nM | CCC(CC)NC(=O)N1CCC(c2c[nH]c3ncc(-c4ccc(CN5CCN(C)CC5)s4)cc23)=CC1C (stereo not shown) [Example 91, 6-Methyl-4-(5-(5-((4-methylpiperazin-1-yl)methyl)thiophen-2-yl)-1H-pyrrolo[2,3-b]pyridin-3-yl)-N-(pentan-3-yl)-3,6-dihydropyridine-1(2H)-carboxamide] |
| 35 nM | 130 nM | CCC(CC)NC(=O)N1CCC(c2c[nH]c3ncc(-c4ccc(CN5CCOCC5)s4)cc23)=CC1C (stereo not shown) [Example 92, 6-Methyl-4-(5-(5-(morpholinomethyl)thiophen-2-yl)-1H-pyrrolo[2,3-b]pyridin-3-yl)-N-(pentan-3-yl)-3,6-dihydropyridine-1(2H)-carboxamide] |
| 18 nM | 48 nM | CC1C=C(c2c[nH]c3ncc(-c4ccc(CN5CCN(C(=O)OC(C)(C)C)CC5)s4)cc23)CCN1C(=O)NC1CC1 (stereo not shown) [Example 93, tert-Butyl 4-((5-(3-(1-(cyclopropylcarbamoyl)-6-methyl-1,2,3,6-tetrahydropyridin-4-yl)-1H-pyrrolo[2,3-b]pyridin-5-yl)thiophen-2-yl)methyl)piperazine-1-carboxylate] |
| 3.9 nM | 10 nM | CC1C=C(c2c[nH]c3ncc(-c4ccc(C(=O)N5CCN(C)CC5)cc4)cc23)CCN1C(=O)NC1CC1 (stereo not shown) [Example 94, N-cyclopropyl-2-methyl-4-(5-(4-(4-methylpiperazine-1-carbonyl)phenyl)-1H-pyrrolo[2,3-b]pyridin-3-yl)-5,6-dihydropyridine-1(2H)-carboxamide] |
| 7.4 nM | 14 nM | CC1C=C(c2c[nH]c3ncc(-c4ccc(CN5CCN(C)CC5)cc4)cc23)CCN1C(=O)NC1CC1 (stereo not shown) [Example 95, N-cyclopropyl-2-methyl-4-(5-(4-((4-methylpiperazin-1-yl)methyl)phenyl)-1H-pyrrolo[2,3-b]pyridin-3-yl)-5,6-dihydropyridine-1(2H)-carboxamide] |
| 3.1 nM | 6.5 nM | CC1C=C(c2c[nH]c3ncc(-c4ccc(CN5CCN(C)CC5)s4)cc23)CCN1C(=O)NC1CC1 (stereo not shown) [Example 96, N-cyclopropyl-2-methyl-4-(5-(5-((4-methylpiperazin-1-yl)methyl)thiophen-2-yl)-1H-pyrrolo[2,3-b]pyridin-3-yl)-5,6-dihydropyridine-1(2H)-carboxamide] |
| 1.7 nM | 2.5 nM | CC1C=C(c2c[nH]c3ncc(-c4ccc(CN5CCOCC5)s4)cc23)CCN1C(=O)NC1CC1 (stereo not shown) [Example 97, N-cyclopropyl-2-methyl-4-(5-(5-(morpholinomethyl)thiophen-2-yl)-1H-pyrrolo[2,3-b]pyridin-3-yl)-5,6-dihydropyridine-1(2H)-carboxamide] |
| 15 nM | 22 nM | CC1C=C(c2c[nH]c3ncc(-c4ccc(C(=O)N5CCN(C)CC5)cc4)cc23)CCN1C(=O)NC1CCC1 (stereo not shown) [Example 98, N-cyclobutyl-2-methyl-4-(5-(4-(4-methylpiperazine-1-carbonyl)phenyl)-1H-pyrrolo[2,3-b]pyridin-3-yl)-5,6-dihydropyridine-1(2H)-carboxamide] |
| 28 nM | 64 nM | CC1C=C(c2c[nH]c3ncc(-c4ccc(CN5CCN(C)CC5)cc4)cc23)CCN1C(=O)NC1CCC1 (stereo not shown) [Example 99, N-cyclobutyl-2-methyl-4-(5-(4-((4-methylpiperazin-1-yl)methyl)phenyl)-1H-pyrrolo[2,3-b]pyridin-3-yl)-5,6-dihydropyridine-1(2H)-carboxamide] |
| 5.6 nM | 35 nM | CC1C=C(c2c[nH]c3ncc(-c4ccc(CN5CCN(C)CC5)s4)cc23)CCN1C(=O)NC1CCC1 (stereo not shown) [Example 100, N-cyclobutyl-2-methyl-4-(5-(5-((4-methylpiperazin-1-yl)methyl)thiophen-2-yl)-1H-pyrrolo[2,3-b]pyridin-3-yl)-5,6-dihydropyridine-1(2H)-carboxamide] |
| 10 nM | 29 nM | CC1C=C(c2c[nH]c3ncc(-c4ccc(CN5CCOCC5)s4)cc23)CCN1C(=O)NC1CCC1 (stereo not shown) [Example 101, N-cyclobutyl-2-methyl-4-(5-(5-(morpholinomethyl)thiophen-2-yl)-1H-pyrrolo[2,3-b]pyridin-3-yl)-5,6-dihydropyridine-1(2H)-carboxamide] |
